This data set is described as follows: solvent given as SMILES.

Consider `COC(=O)c1nc2cnc(N)nc2n1Cc1ccccc1`, for which the emission maximum is, setting by setting: (in C1COCCO1) 386 nm; (in CC#N) 388 nm; (in CO) 412 nm; (in ClCCl) 379 nm; (in O) 420 nm.
Compound `CCC1=C(C)c2cc3c(OC)cc(OC)cc3c(=O)n2C1=O` returned an emission maximum (in CC#N) of 476 nm, an emission maximum (in CO) of 510 nm, an emission maximum (in CS(C)=O) of 485 nm and an emission maximum (in ClC(Cl)Cl) of 469 nm.
Take `CC(C)(C)c1ccc2c(c1)c1cc(C(C)(C)C)ccc1n2-c1cccc(C(=O)c2cccc(-n3c4ccc(C(C)(C)C)cc4c4cc(C(C)(C)C)ccc43)n2)n1`: the emission maximum by setting is: (in C1CCOC1) 378.66 nm; (in Cc1ccccc1) 381.64 nm; (in ClCCl) 383.6 nm.
Turning to `N#C/C(=C\c1ccc(C#N)cc1)c1nc(-c2ccc(Cl)cc2)c(-c2ccccc2)s1`, the emission maximum (in CC#N) worked out at 522 nm.
Take `Cc1ccc(C2=C3C=CC4=[N+]3[P-](=O)(=O)n3c2ccc3-c2ccc([nH]2)/C(c2ccc(C)cc2)=c2/cc/c(o2)=C(\c2ccc(C)cc2)c2ccc4[nH]2)cc1`: the emission maximum (in ClC(Cl)Cl) is on record as 714 nm.
Take `C(#Cc1cccc2nsnc12)c1ccc(-n2c3ccccc3c3ccccc32)cc1`: the emission maximum (in ClCCl) was 538 nm.
The compound `CC(C)(C)c1ccc2c(c1)c1cc(C(C)(C)C)cc3c1n2-c1cc(-c2ccc(F)cc2)cc2c1B3c1cc(C(C)(C)C)cc3c4cc(C(C)(C)C)ccc4n-2c13` came in with an emission maximum (in Cc1ccccc1) of 496.94 nm.
Where the note is “in ClC(Cl)Cl”, `CCn1c2ccccc2oc2c(C#N)c3oc4ccccc4oc3c(C#N)c21` had an emission maximum of 555 nm.
Take `c1ccc2cc3c(cc2c1)oc1c2oc4cc5ccccc5cc4c2c2ccccc2c31`: for the setting “in C1CCOC1”, the emission maximum amounted to 399 nm.
As for `CC1=C(C#Cc2ccc([Si](c3ccccc3)(c3ccccc3)c3ccccc3)cc2)C(C)=[N+]2C1=C(c1ccccc1)c1c(C)c(C#Cc3ccc([Si](c4ccccc4)(c4ccccc4)c4ccccc4)cc3)c(C)n1[B-]2(F)F`, the emission maximum (in ClCCl) is 600 nm.
Consider `Cc1cc2nc3[nH]c(=O)[nH]c(=O)c3nc2cc1C`, for which, under “in CC#N”, the emission maximum stood at 437 nm.
With `F[B-]1(F)n2c(-c3ccccc3)c3ccc4ccccc4c3c2N=C2c3c(ccc4ccccc34)C(c3ccccc3)=[N+]21`, the emission maximum (in ClCCl) was 753 nm.
Where the note is “in ClC(Cl)Cl”, `CCCCCCn1c2cc(/C=C(\C#N)c3ccccc3)ccc2c2ccc(/C=C(\C#N)c3ccccc3)cc21` displayed an emission maximum of 469.48 nm.
For the compound `COc1cccc(-c2nc3sc4ccccc4c3s2)c1`, the emission maximum (in CS(C)=O) worked out at 412 nm.
Under “in ClCCl”, `C[Si](C)(C)C#Cc1cc(C#C[Si](C)(C)C)c2ccc3c(C(=O)c4ccccc4)cc(C#C[Si](C)(C)C)c4ccc1c2c43` returned an emission maximum of 467 nm.
Take `COc1cccc(-n2c(-c3ccc(O)cc3)nc(C)c2C)c1`: the emission maximum amounted to 368 nm (in C1COCCO1); 364 nm (in CC#N); 370 nm (in CCCCCC); 371 nm (in CCCCO); 372 nm (in CCO); 368 nm (in CCOC(C)=O). Moreover, the emission maximum by setting is: (in CO) 369 nm; (in ClC(Cl)Cl) 372 nm; (in ClCCl) 369 nm; (in c1ccccc1) 371 nm.
For the compound `CCC(CC)n1c2ccccc2c2cc3c(cc21)c1ccccc1n3C(CC)CC`, the emission maximum (in ClC(Cl)Cl) is 423 nm.
For the compound `C(=C\c1ccc(-n2c3ccccc3c3ccccc32)cc1)/c1ccc(-c2ccc(/C=C/c3ccc(-n4c5ccccc5c5ccccc54)cc3)cc2)cc1`, the emission maximum reads like this: (in Cc1ccccc1) 420 nm; (in c1ccc2c(c1)c1ccccc1n2-c1ccc(-c2ccc(-n3c4ccccc4c4ccccc43)cc2)cc1) 438 nm.
As to `Cn1nc(-c2ccc(C(F)(F)F)cc2)cc1-c1ccccc1`, the emission maximum (in ClCCl) is on record as 341 nm.
Compound `COc1ccc2c(c1)CCc1c(-c3ccccc3)c3n(c1-2)[B-](F)(F)[N+]1=C2C(=C(c4ccccc4)C1=N3)CCc1ccccc12` came in with an emission maximum (in ClC(Cl)Cl) of 734 nm.
`N#Cc1c2nc3ccccn3c2nc2nc3ccccn3c12`: the emission maximum (in C1CCCCC1) is 485 nm; the emission maximum (in C1COCCO1) stood at 505 nm; the emission maximum (in CC#N) came to 525 nm; the emission maximum (in CN(C)C=O) is reported as 540 nm; the emission maximum (in ClC(Cl)Cl) amounted to 510 nm.
For `c1ccc(-n2c(-c3cccc4ccccc34)nc3c4ccccc4c4ccccc4c32)cc1`, the emission maximum (in C1CCOC1) is on record as 413.91 nm; the emission maximum (in CCCCCC) came out at 384 nm; the emission maximum (in CS(C)=O) stood at 423 nm; the emission maximum (in Cc1ccccc1) worked out at 410 nm; the emission maximum (in ClCCl) turned out to be 415.6 nm.
On to `C(#Cc1ccccc1)c1ccccc1`, for which the emission maximum is recorded as 307 nm (in CO), 320 nm (in ClC(Cl)Cl) and 302 nm (in ClCCl).
With `CCCC1=Cc2nc1ccc1[nH]c(cc1CCC)c1nc(c(OC(=O)CCCC(=O)OC(C)(C)C)cc3[nH]c2cc3CCC)C(CCC)=C1`, the emission maximum (in Cc1ccccc1) is given as 651 nm.
As for `CC(C)(C)c1ccc2c(c1)c1cc(C(C)(C)C)ccc1n2-c1cc[n+]2c(c1)-c1ccccc1O[B-]2(F)F`, the emission maximum was found to be 473 nm (in Cc1ccccc1) and 488 nm (in O=P(c1ccccc1)(c1ccccc1)c1ccccc1Oc1ccccc1P(=O)(c1ccccc1)c1ccccc1).
Turning to `N#CC(C#N)=C(c1ccc(N(c2ccccc2)c2ccccc2)cc1)c1ccc(N(c2ccccc2)c2ccccc2)cc1`, the emission maximum is on record as 413.3 nm (in C1CCCCC1); 505.58 nm (in CC(C)=O); 515.24 nm (in CN(C)C=O); 439.48 nm (in Cc1ccccc1); 491.2 nm (in ClC(Cl)Cl).
`COc1ccc(-c2nc(-c3ccc(OC)cc3)n3ccccc23)cc1` came in with an emission maximum (in ClC(Cl)Cl) of 479 nm.
`Cc1cc(=O)c2ccc(N)cc2o1`: the emission maximum (in C1CCOC1) was determined as 382 nm; the emission maximum (in C1COCCO1) turned out to be 378 nm; the emission maximum (in CC#N) amounted to 388 nm; the emission maximum (in CC(C)O) was determined as 418 nm; the emission maximum (in CCCCO) was 417 nm; the emission maximum (in CCCO) was 416 nm. Moreover, the emission maximum (in CCOC(C)=O) was found to be 378 nm; the emission maximum (in CN(C)C=O) worked out at 408 nm; the emission maximum (in CO) is 421 nm; the emission maximum (in CS(C)=O) is recorded as 402 nm; the emission maximum (in ClC(Cl)Cl) is recorded as 380 nm; the emission maximum (in O) stood at 435 nm.
As for `Cn1c2nc(=O)[nH]c(=O)c-2nc2ccccc21`, the emission maximum (in CC1CCCO1) is given as 489 nm.
Consider `CC(C)[Si](C#Cc1c2nc3ccccc3nc2c(C#C[Si](C(C)C)(C(C)C)C(C)C)c2nc3ccccc3nc12)(C(C)C)C(C)C`, for which the emission maximum (in CCCCCC) was 694 nm.
Regarding `COc1ccc(/C=C/C2=NC(=C\c3ccncc3)/C(=O)N2C)cc1`, the emission maximum came out at 564 nm (in C1COCCO1); 574 nm (in CC#N); 570 nm (in CCO); 566 nm (in CCOC(C)=O); 577 nm (in O).
With `c1cc2c3c(c1)ccc1[n+]3[B-]3(Oc4cccc5ccc6[n+](c45)[B-](O2)(O3)n2c-6cc3c4ccccc4c4ccccc4c32)n2c-1cc1c3ccccc3c3ccccc3c12`, where the note is “in ClCCl”, the emission maximum was 568 nm.
On to `CN(C)c1ccc(/C=C/c2ccc(C#N)cc2)cc1`, for which the emission maximum reads like this: (in C1CCOC1) 499 nm; (in CC#N) 530 nm; (in CCCC#N) 522 nm; (in CCCCCC) 415 nm; (in CCCCOCCCC) 453 nm; (in CCO) 524 nm. This compound also had an emission maximum (in CCOCC) of 475 nm.

Source of the values: the Deep4Chem optical property database.
